# Experimental data as given in patent US20260014232A1, “Pharmaceutical Composition of GLP-1 and GIP Receptor Dual Agonist and Use Thereof” (Jiangsu Hengrui Pharmaceuticals Co., Ltd., priority 2021, published 2026).
# Starred links: 1 amine or outer side, 2 acyl side, 3 side chain; linkers in the order of their positions; H or OH if unused. Non-standard residues stand in square brackets, D forms with d. Residues, ends and D or L forms follow the SMILES beside them. Groups on a side chain read outwards from the residue. *: point of attachment. C20 diacid = O=C(O)CCCCCCCCCCCCCCCCCCC(=O)*; γGlu = O=C(O)[C@H](CCC(=O)[*:2])N[*:1]; AEEA = NCCOCCOCC(=O)O; Aib = CC(C)(N)C(=O)O
# Assay: Food intake of diet-induced-obesity (DIO) mice
# Type: in vivo, C57BL/6 mice
# Description: High-fat food-induced-obesity male C57BL/6 mice (weighing 35-55 g, aged 10-12 weeks, purchased from Shanghai Jiesijie Laboratory Animal Co., Ltd.) were tested. […] According to the experimental design, the body weight of each mouse was measured and recorded on day 0, day 3, day 6, and so on to day 27, the average body weight of each group of mice was calculated, and body weight change curves were plotted by taking the body weight on the first day as the standard. At the end, the fat and other visceral organs of each part of the mice were taken out and weighed, and the viscera/brain ratio for fat in each part of each mouse was calculated. The effect of the drug on the fat was determined by comparing the change in the viscera/brain ratio for fat of different parts of each group of mice.
# The food intake of mice in each group was measured daily during the experiment.
compound,measurement,setting,value
CC[C@H](C)[C@H](NC(=O)[C@H](CCCCN)NC(=O)[C@H](CCC(=O)O)NC(=O)[C@H](CCCCNC(=O)COCCOCCNC(=O)COCCOCCNC(=O)CC[C@H](NC(=O)CCCCCCCCCCCCCCCCCCC(=O)O)C(=O)O)NC(=O)[C@H](Cc1ccc(O)cc1)NC(=O)[C@@H](NC(=O)[C@H](CO)NC(=O)[C@H](Cc1ccc(O)cc1)NC(=O)[C@H](CC(=O)O)NC(=O)[C@H](CO)NC(=O)[C@@H](NC(=O)[C@H](Cc1ccccc1)NC(=O)[C@@H](NC(=O)CNC(=O)[C@H](CCC(=O)O)NC(=O)C(C)(C)NC(=O)[C@@H](N)Cc1ccc(O)cc1)[C@@H](C)O)[C@@H](C)O)[C@@H](C)CC)C(=O)N[C@@H](C)C(=O)N[C@@H](C)C(=O)N[C@@H](CCC(N)=O)C(=O)N[C@@H](CCC(=O)O)C(=O)N[C@@H](Cc1ccccc1)C(=O)N[C@H](C(=O)N[C@@H](CC(N)=O)C(=O)N[C@@H](Cc1c[nH]c2ccccc12)C(=O)N[C@@H](CC(C)C)C(=O)N[C@@H](CC(C)C)C(=O)N[C@@H](C)C(=O)NCC(=O)NCC(=O)N1CCC[C@H]1C(=O)N[C@@H](CO)C(=O)N[C@@H](CO)C(=O)NCC(=O)N[C@@H](C)C(=O)N1CCC[C@H]1C(=O)N1CCC[C@H]1C(=O)N1CCC[C@H]1C(=O)N[C@@H](CO)C(N)=O)C(C)C [Compound 18#] (H-Y[Aib]EGTFTSDYSIYK([AEEA-AEEA-γGlu-C20 diacid])EKIAAQEFVNWLLAGGPSSGAPPPS-NH2),cumulative food intake 28 days after the administration,3 nmol/kg,58.2 g
same,cumulative food intake within 5 days after the administration,3 nmol/kg,7.2 g
same,daily food intake,"3 nmol/kg, day 1, listed as 18 #",0.6 g
same,daily food intake,"3 nmol/kg, day 1, listed as 18#",0.6 g
same,daily food intake,"3 nmol/kg, day 2",1.3 g
same,daily food intake,"3 nmol/kg, day 3",2 g
same,daily food intake,"3 nmol/kg, day 4",1.1 g
same,daily food intake,"3 nmol/kg, day 5",2.2 g
same,daily food intake,"3 nmol/kg, day 6",2.1 g
same,daily food intake,"3 nmol/kg, day 7",1.1 g
same,daily food intake,"3 nmol/kg, day 8",1.6 g
same,daily food intake,"3 nmol/kg, day 9",2.5 g
same,daily food intake,"3 nmol/kg, day 10",1.3 g
same,daily food intake,"3 nmol/kg, day 11",2 g
same,daily food intake,"3 nmol/kg, day 12",3 g
same,daily food intake,"3 nmol/kg, day 13",1.8 g
same,daily food intake,"3 nmol/kg, day 14",2.3 g
same,daily food intake,"3 nmol/kg, day 15",2.9 g
same,daily food intake,"3 nmol/kg, day 16",1.5 g
same,daily food intake,"3 nmol/kg, day 17",2.2 g
same,daily food intake,"3 nmol/kg, day 18",2.7 g
same,daily food intake,"3 nmol/kg, day 19",1.7 g
same,daily food intake,"3 nmol/kg, day 20",2.2 g
same,daily food intake,"3 nmol/kg, day 21",3.4 g
same,daily food intake,"3 nmol/kg, day 22",1.8 g
same,daily food intake,"3 nmol/kg, day 23",2.6 g
same,daily food intake,"3 nmol/kg, day 24",2.9 g
same,daily food intake,"3 nmol/kg, day 25",1.8 g
same,daily food intake,"3 nmol/kg, day 26",2.5 g
same,daily food intake,"3 nmol/kg, day 27",3.9 g
same,daily food intake,"3 nmol/kg, day 28",1.3 g
same,cumulative food intake 28 days after the administration,10 nmol/kg,46.8 g
same,cumulative food intake within 5 days after the administration,10 nmol/kg,3.9 g
same,daily food intake,"10 nmol/kg, day 1, listed as 18 #",0.3 g
same,daily food intake,"10 nmol/kg, day 1, listed as 18#",0.3 g
same,daily food intake,"10 nmol/kg, day 2",0.6 g
same,daily food intake,"10 nmol/kg, day 3",1.1 g
same,daily food intake,"10 nmol/kg, day 4",0.7 g
same,daily food intake,"10 nmol/kg, day 5",1.1 g
same,daily food intake,"10 nmol/kg, day 6",1.5 g
same,daily food intake,"10 nmol/kg, day 7",0.8 g
same,daily food intake,"10 nmol/kg, day 8",1.1 g
same,daily food intake,"10 nmol/kg, day 9",2 g
same,daily food intake,"10 nmol/kg, day 10",0.9 g
same,daily food intake,"10 nmol/kg, day 11",1.8 g
same,daily food intake,"10 nmol/kg, day 12",2.4 g
same,daily food intake,"10 nmol/kg, day 13",0.9 g
same,daily food intake,"10 nmol/kg, day 14",1.7 g
same,daily food intake,"10 nmol/kg, day 15",3 g
same,daily food intake,"10 nmol/kg, day 16",1.2 g
same,daily food intake,"10 nmol/kg, day 17",2.1 g
same,daily food intake,"10 nmol/kg, day 18",2.9 g
same,daily food intake,"10 nmol/kg, day 19",1.3 g
same,daily food intake,"10 nmol/kg, day 20",2 g
same,daily food intake,"10 nmol/kg, day 21",3.2 g
same,daily food intake,"10 nmol/kg, day 22",1 g
same,daily food intake,"10 nmol/kg, day 23",2.3 g
same,daily food intake,"10 nmol/kg, day 24",2.5 g
same,daily food intake,"10 nmol/kg, day 25",1.6 g
same,daily food intake,"10 nmol/kg, day 26",2.2 g
same,daily food intake,"10 nmol/kg, day 27",3.6 g
same,daily food intake,"10 nmol/kg, day 28",1 g
same,cumulative food intake 28 days after the administration,100 nmol/kg,36.7 g
same,cumulative food intake within 5 days after the administration,100 nmol/kg,1.8 g
same,daily food intake,"100 nmol/kg, day 1, listed as 18 #",0.2 g
same,daily food intake,"100 nmol/kg, day 1, listed as 18#",0.2 g
same,daily food intake,"100 nmol/kg, day 2",0.1 g
same,daily food intake,"100 nmol/kg, day 3",0.4 g
same,daily food intake,"100 nmol/kg, day 4",0.4 g
same,daily food intake,"100 nmol/kg, day 5",0.6 g
same,daily food intake,"100 nmol/kg, day 6",0.7 g
same,daily food intake,"100 nmol/kg, day 7",0.5 g
same,daily food intake,"100 nmol/kg, day 8",0.7 g
same,daily food intake,"100 nmol/kg, day 9",0.9 g
same,daily food intake,"100 nmol/kg, day 10",0.9 g
same,daily food intake,"100 nmol/kg, day 11",1.1 g
same,daily food intake,"100 nmol/kg, day 12",2 g
same,daily food intake,"100 nmol/kg, day 13",1.3 g
same,daily food intake,"100 nmol/kg, day 14",1.7 g
same,daily food intake,"100 nmol/kg, day 15",2 g
same,daily food intake,"100 nmol/kg, day 16",1 g
same,daily food intake,"100 nmol/kg, day 17",1.6 g
same,daily food intake,"100 nmol/kg, day 18",2 g
same,daily food intake,"100 nmol/kg, day 19",1.4 g
same,daily food intake,"100 nmol/kg, day 20",1.8 g
same,daily food intake,"100 nmol/kg, day 21",2.4 g
same,daily food intake,"100 nmol/kg, day 22",1.4 g
same,daily food intake,"100 nmol/kg, day 23",2.1 g
same,daily food intake,"100 nmol/kg, day 24",2.3 g
same,daily food intake,"100 nmol/kg, day 25",1.5 g
same,daily food intake,"100 nmol/kg, day 26",1.6 g
same,daily food intake,"100 nmol/kg, day 27",2.8 g
same,daily food intake,"100 nmol/kg, day 28",1.2 g
